In the NIST ThermoML archive (doi:10.1021/je049762q):

Assay: molar heat capacity at constant pressure
Details: 101.33 kPa

Clc1cc(Cl)cc(Cl)c1 [1,3,5-trichlorobenzene]
molar heat capacity at constant pressure [J/K/mol]
Details	Crystal	Liquid
171.08 K	107.71	–
172.15 K	108.11	–
174.44 K	109.1	–
174.82 K	109.23	–
177.47 K	110.35	–
177.76 K	110.52	–
180 K	111.41	–
180.1 K	111.45	–
181.06 K	111.92	–
182.71 K	112.52	–
184.34 K	113.28	–
185.3 K	113.6	–
187.58 K	114.63	–
187.87 K	114.66	–
190 K	115.57	–
190.43 K	115.78	–
190.81 K	115.98	–
192.97 K	116.82	–
194.01 K	117.3	–
195.49 K	117.83	–
197.19 K	118.6	–
198 K	118.86	–
200 K	119.79	–
200.35 K	119.94	–
202.96 K	120.92	–
203.48 K	121.26	–
205.42 K	121.91	–
206.6 K	122.49	–
207.87 K	122.92	–
209.7 K	123.75	–
210 K	123.84	–
210.3 K	123.89	–
212.71 K	124.89	–
212.77 K	125.04	–
215.12 K	125.93	–
215.83 K	126.21	–
217.51 K	126.8	–
218.86 K	127.47	–
219.88 K	127.77	–
220 K	127.82	–
221.88 K	128.7	–
222.25 K	128.72	–
224.6 K	129.66	–
224.87 K	129.89	–
226.94 K	130.61	–
227.85 K	131.11	–
229.27 K	131.59	–
230 K	131.95	–
230.81 K	132.32	–
231.58 K	132.53	–
233.76 K	133.48	–
236.18 K	134.38	–
236.69 K	134.73	–
238.46 K	135.33	–
239.6 K	135.87	–
240 K	136.02	–
240.73 K	136.28	–
242.5 K	137.03	–
242.99 K	137.17	–
245.24 K	138.06	–
245.38 K	138.2	–
247.48 K	138.95	–
248.24 K	139.34	–
249.71 K	139.83	–
250 K	139.96	–
251.09 K	140.46	–
251.93 K	140.7	–
253.93 K	141.6	–
256.34 K	142.49	–
256.76 K	142.74	–
258.53 K	143.37	–
259.57 K	143.79	–
260 K	143.95	–
260.71 K	144.19	–
262.36 K	144.92	–
262.88 K	145.05	–
265.05 K	145.93	–
265.15 K	146.04	–
267.2 K	146.81	–
267.91 K	147.2	–
269.34 K	147.62	–
270 K	147.9	–
270.67 K	148.17	–
271.48 K	148.45	–
273.41 K	149.19	–
275.71 K	150.21	–
276.13 K	150.38	–
277.82 K	150.9	–
278.84 K	151.41	–
279.93 K	151.88	–
280 K	151.91	–
281.54 K	152.27	–
282.02 K	152.47	–
284.11 K	153.34	–
286.19 K	153.9	–
288.26 K	154.74	–
290 K	155.34	–
290.32 K	155.45	–
292.38 K	156.18	–
294.42 K	157	–
295.88 K	157.42	–
296.46 K	157.62	–
298.15 K	158.32	–
298.44 K	158.35	–
300 K	159.02	–
300.52 K	159.26	–
300.98 K	159.48	–
303.51 K	160.28	–
306.03 K	161.24	–
306.98 K	161.57	–
308.54 K	162.23	–
310 K	162.81	–
310.04 K	162.82	–
311.04 K	163.32	–
311.61 K	163.35	–
313.11 K	164.04	–
313.53 K	164.32	–
314.66 K	164.78	–
316 K	165.48	–
317.72 K	166.19	–
318.47 K	166.69	–
320 K	167.31	–
320.77 K	167.5	–
320.93 K	167.74	–
323.38 K	168.94	–
323.83 K	169.15	–
325.82 K	170.31	–
326.88 K	171.2	–
328.25 K	171.54	–
330 K	172.45	–
335.92 K	175.78	197.88
338.89 K	–	198.6
340 K	–	198.76
341.83 K	–	199.12
341.91 K	–	199.27
344.76 K	–	199.68
344.94 K	–	199.89
347.69 K	–	200.32
347.97 K	–	200.6
350 K	–	200.94
350.61 K	–	200.99
350.99 K	–	201.16
353.52 K	–	201.63
354 K	–	201.88
356.43 K	–	202.27
357.01 K	–	202.62
359.34 K	–	202.96
360 K	–	203.18
360.01 K	–	203.24
362.24 K	–	203.68
363.01 K	–	203.85
365.13 K	–	204.35
366 K	–	204.62
368.02 K	–	204.99
368.98 K	–	205.5
370 K	–	205.46
370.9 K	–	205.72
371.95 K	–	206
373.78 K	–	206.29
374.93 K	–	206.68
376.65 K	–	206.96
377.9 K	–	207.35
379.51 K	–	207.51
380 K	–	207.79
380.86 K	–	207.96
